For the series, the system named is CCRIS mutagenicity, Ames/micronucleus/aberration tests. Briefly: CCRIS mutagenicity studies.
Where [1] appears, read: Test System: AMES SALMONELLA TYPHIMURIUM, Strain/Indicator: TA100, Metabolic Activation: NONE, Method: STANDARD PLATE.
[2] abbreviates: Test System: MOUSE LYMPHOMA, Strain/Indicator: L5178Y (TK+/TK-), Metabolic Activation: RAT, LIVER, S-9, AROCLOR 1254, Method: SUSPENSION/PLATE.

Activity calls are given as the source filed them. The rule behind the calls is not given here.

On to `C1O[C@@H]1[C@H]1CO1`, for which the mutagenic call is, setting by setting: (End Point: IN VITRO CHROMOSOMAL ABERRATIONS, Test System: HUMAN PERIPHERAL LYMPHOCYTES, Metabolic Activation: NONE, Method: FISH (CHROMOSOME PAINTING)) “active; positive (structural changes)”; (End Point: IN VIVO MICRONUCLEUS, Test System: PERIPHERAL BLOOD RETICULOCYTES, Species: MOUSE, Strain/Sex: BALB/C/MALE, Route: IP INJECTION, ONCE) “inactive; positive (d 1 -2); positive at both dose levels on d 2 (negative by d 3)”; (End Point: IN VIVO MICRONUCLEUS, Test System: SPERMATID, Species: RAT, Strain/Sex: SPRAGUE-DAWLEY/MALE, Route: IP INJECTION) “active; positive”; (End Point: IN VIVO MICRONUCLEUS, Test System: SPERMATIDS, Species: MOUSE, Strain/Sex: (102XC3H)F1/MALE, Route: IP INJECTION) “active; positive (at 30 mg at 3 d after exposure)”; (End Point: IN VIVO MICRONUCLEUS, Test System: SPERMATIDS, Species: MOUSE, Strain/Sex: BALB/C/MALE, Route: IP INJECTION) “active; positive”; (End Point: IN VIVO MICRONUCLEUS, Test System: SPERMATIDS, Species: RAT, Strain/Sex: LEWIS/MALE, Route: IP INJECTION) “active; positive”. The mutagenic call is, setting by setting: (End Point: IN VIVO MICRONUCLEUS, Test System: SPLENOCYTES, Species: MOUSE, Strain/Sex: (102XC3H)F1/MALE, Route: IP INJECTION) “active; positive”; (End Point: IN VIVO MICRONUCLEUS, Test System: SPLENOCYTES, Species: RAT, Strain/Sex: LEWIS/MALE, Route: IP INJECTION) “active; positive”; under setting [1], “active; positive”; (Test System: AMES SALMONELLA TYPHIMURIUM, Strain/Indicator: TA1535, Metabolic Activation: NONE, Method: STANDARD PLATE) “active; positive”; (Test System: CHINESE HAMSTER OVARY, Strain/Indicator: AS52/6-THIOGUANINE, Metabolic Activation: NONE) “active; positive”; (Test System: MOUSE LYMPHOMA, Strain/Indicator: L5178Y (TK+/TK-), Metabolic Activation: NONE, Method: SUSPENSION/PLATE) “active; positive”. Further, the mutagenic call is, setting by setting: under setting [2], “active; positive”; (Test System: MOUSE LYMPHOMA, Strain/Indicator: L5178Y (TK+/TK-), Metabolic Activation: RAT, LIVER, S-9, Method: SUSPENSION/PLATE) “active; positive”; (Test System: UDS MOUSE SPERM CELLS, Strain/Indicator: THY INCORP, Metabolic Activation: IN VIVO, Method: LIQUID SCINTILLATION COUNTING) “active; positive”.
`OCC1=CCN2CC[C@@H](O)[C@@H]12`: the mutagenic call is, setting by setting: (Test System: AMES SALMONELLA TYPHIMURIUM, Strain/Indicator: TA100, Metabolic Activation: HAMSTER, LIVER, S-9, PCB, Method: PREINCUBATION) “inactive; negative”; (Test System: AMES SALMONELLA TYPHIMURIUM, Strain/Indicator: TA100, Metabolic Activation: RAT, LIVER, S-9, PCB, Method: PREINCUBATION) “inactive; negative”; (Test System: UDS HAMSTER HEPATOCYTES, Strain/Indicator: THY INCORP, Metabolic Activation: NONE, Method: AUTORADIOGRAPHY) “inactive; negative”; (Test System: UDS MOUSE HEPATOCYTES, Strain/Indicator: THY INCORP, Metabolic Activation: NONE, Method: AUTORADIOGRAPHY) “inactive; negative”; (Test System: UDS RAT HEPATOCYTES, Strain/Indicator: THY INCORP, Metabolic Activation: NONE, Method: AUTORADIOGRAPHY) “inactive; negative”.
Take `COC(C)(C)C`: the mutagenic call was “inactive; negative” (Test System: AMES SALMONELLA TYPHIMURIUM, Strain/Indicator: TA98, Metabolic Activation: NONE); “inactive; negative” (Test System: AMES SALMONELLA TYPHIMURIUM, Strain/Indicator: TA98, Metabolic Activation: NONE, Method: MICROSUSPENSION); “inactive; negative” (Test System: AMES SALMONELLA TYPHIMURIUM, Strain/Indicator: TA98, Metabolic Activation: NONE, Method: STANDARD PLATE); “inactive; negative” (Test System: AMES SALMONELLA TYPHIMURIUM, Strain/Indicator: TA98, Metabolic Activation: RAT LIVER S-9); “inactive; negative” (Test System: AMES SALMONELLA TYPHIMURIUM, Strain/Indicator: TA98, Metabolic Activation: RAT LIVER S-9, AROCLOR 1254, Method: STANDARD PLATE); “inactive; negative” (Test System: AMES SALMONELLA TYPHIMURIUM, Strain/Indicator: TA98, Metabolic Activation: RAT, LIVER, S-9, AROCLOR 1254, Method: MICROSUSPENSION). The mutagenic call is “inactive; negative” (Test System: AMES SALMONELLA TYPHIMURIUM, Strain/Indicator: TA100, Metabolic Activation: NONE); “inactive; negative” (Test System: AMES SALMONELLA TYPHIMURIUM, Strain/Indicator: TA100, Metabolic Activation: NONE, Method: MICROSUSPENSION); “inactive; negative” under setting [1]; “inactive; negative” (Test System: AMES SALMONELLA TYPHIMURIUM, Strain/Indicator: TA100, Metabolic Activation: RAT LIVER S-9); “inactive; negative” (Test System: AMES SALMONELLA TYPHIMURIUM, Strain/Indicator: TA100, Metabolic Activation: RAT LIVER S-9, AROCLOR 1254, Method: STANDARD PLATE); “inactive; negative” (Test System: AMES SALMONELLA TYPHIMURIUM, Strain/Indicator: TA100, Metabolic Activation: RAT, LIVER, S-9, AROCLOR 1254, Method: MICROSUSPENSION). Besides, the mutagenic call is “inactive; negative” (Test System: AMES SALMONELLA TYPHIMURIUM, Strain/Indicator: TA102, Metabolic Activation: NONE, Method: STANDARD PLATE); “inactive; negative” (Test System: AMES SALMONELLA TYPHIMURIUM, Strain/Indicator: TA102, Metabolic Activation: RAT, LIVER, S-9, PHENOBARBITAL-BETA-NAPHTHOFLAVONE, Method: STANDARD PLATE); “inactive; negative” (Test System: AMES SALMONELLA TYPHIMURIUM, Strain/Indicator: TA104, Metabolic Activation: NONE, Method: MICROSUSPENSION); “inactive; negative” (Test System: AMES SALMONELLA TYPHIMURIUM, Strain/Indicator: TA104, Metabolic Activation: RAT, LIVER, S-9, AROCLOR 1254, Method: MICROSUSPENSION); “inactive; negative” (Test System: AMES SALMONELLA TYPHIMURIUM, Strain/Indicator: TA1535, Metabolic Activation: NONE, Method: MICROSUSPENSION); “inactive; negative” (Test System: AMES SALMONELLA TYPHIMURIUM, Strain/Indicator: TA1535, Metabolic Activation: RAT, LIVER, S-9, AROCLOR 1254, Method: MICROSUSPENSION). The mutagenic call runs as follows: (Test System: Ames Salmonella typhimurium, Strain/Indicator: TA98, Metabolic Activation: None, Method: Plate incorporation) “inactive; negative”; (Test System: Ames Salmonella typhimurium, Strain/Indicator: TA98, Metabolic Activation: None, Method: Preincubation) “inactive; negative”; (Test System: Ames Salmonella typhimurium, Strain/Indicator: TA98, Metabolic Activation: Rat, Liver, S-9, Method: Plate incorporation) “inactive; negative”; (Test System: Ames Salmonella typhimurium, Strain/Indicator: TA98, Metabolic Activation: Rat, Liver, S-9, Method: Preincubation) “inactive; negative”; (Test System: Ames Salmonella typhimurium, Strain/Indicator: TA100, Metabolic Activation: None, Method: Plate incorporation) “inactive; negative”; (Test System: Ames Salmonella typhimurium, Strain/Indicator: TA100, Metabolic Activation: None, Method: Preincubation) “inactive; negative”. Besides, the mutagenic call (Test System: Ames Salmonella typhimurium, Strain/Indicator: TA100, Metabolic Activation: Rat, Liver, S-9, Method: Plate incorporation) was “inactive; negative”; the mutagenic call (Test System: Ames Salmonella typhimurium, Strain/Indicator: TA100, Metabolic Activation: Rat, Liver, S-9, Method: Preincubation) is “inactive; negative”; the mutagenic call (Test System: Ames Salmonella typhimurium, Strain/Indicator: YG1041, Metabolic Activation: None, Method: Plate incorporation) is “inactive; negative”; the mutagenic call (Test System: Ames Salmonella typhimurium, Strain/Indicator: YG1041, Metabolic Activation: None, Method: Preincubation) is “inactive; negative”; the mutagenic call (Test System: Ames Salmonella typhimurium, Strain/Indicator: YG1042, Metabolic Activation: None, Method: Plate incorporation) was “inactive; negative”; the mutagenic call (Test System: Ames Salmonella typhimurium, Strain/Indicator: YG1042, Metabolic Activation: None, Method: Preincubation) is “inactive; negative”. Moreover, the mutagenic call under setting [2] is “active; positive”; the mutagenic call (Test System: MOUSE LYMPHOMA, Strain/Indicator: L5178Y (TK+/TK-), Method: SUSPENSION/PLATE) is “inactive; negative”; the mutagenic call (Test System: UDS MOUSE HEPATOCYTES, Strain/Indicator: THY INCORP, Metabolic Activation: NONE, Method: IN-VIVO-IN VITRO) was “inactive; negative”; the mutagenic call (Test System: UDS RAT HEPATOCYTES, Strain/Indicator: THYMIDINE INCORPORATION, Metabolic Activation: NONE, Method: LIQUID SCINTILLATION COUNTING) is “active; positive”; the mutagenic call (Test System: UDS RAT HEPATOCYTES, Strain/Indicator: THYMIDINE INCORPORATION, Metabolic Activation: RAT LIVER S-9, AROCLOR 1254, Method: LIQUID SCINTILLATION COUNTING) was “active; positive”.
As for `O=C(/C=C/c1ccc(O)c(O)c1)O[C@H](Cc1ccc(O)c(O)c1)C(=O)O`, the mutagenic call (End Point: In vivo micronucleus, Species: Mouse, Strain/Sex: Swiss/Male, Route: Oral) is “inactive; negative”.

These data come from PubChem BioAssay AID1259407 (Chemical Carcinogenesis Research Information System (CCRIS), 2018).
